The test system of assay [1] is THP-1 cells. As to the kind of experiment: Cell viability assay (CellTiter 96 / MTT, A490). It is filed as cell-based, human. The conditions noted are these: THP-1, 50 to 500 μM apigenin, 24 h; reduced to. The protocol: (§1) FIG. 1. Effect of apigenin and naringenin in cell survival of cancer cells. (A) Structure of the flavonoids apigenin and naringenin. (B) THP-1, U937, A549, and MCF-7 cells were treated with various doses of apigenin or naringenin for 24 h. After the treatment, the percentage of cell proliferation was calculated as the ratio of treated cells to control cells as determined by the MTT method (A490). Data represents means ±SEM (N=9). […] Cells were plated at a density of 2×10^4 cells/well into 96-well plates and treated with flavonoids at indicated concentrations for 24 h. Absorbance at 490 nm (A490) was recorded using an ELISA plate reader (Bio-Tek ELx800, KC Junior, Winooski, Vt.).

Assay [2] concerns U937 cells. As to the kind of experiment: Cell viability assay (CellTiter 96 / MTT, A490). It is filed as cell-based, human. The conditions noted are these: 24 h, reduced to. As to the method:
as §1

The test system of another assay is A549 cells. As to the kind of experiment: Cell viability assay (CellTiter 96 / MTT, A490). It is filed as cell-based. Conditions: A549, apigenin, 24 h; reduced to. As to the method:
as §1

The subject of another assay is MCF-7 cells. As to the kind of experiment: Cell viability assay (CellTiter 96 / MTT, A490). The conditions noted are these: MCF-7, apigenin, 24 h; reduced to. The assay is classed as cell-based. As to the method:
as §1

The test system of assay [3] is THP-1 cells. As to the kind of experiment: Cell survival and apoptosis by calcein AM/PI staining. The assay is classed as cell-based, human. The protocol: (§2) FIG. 2. Apigenin induces cell death in monocytic leukemia cells. THP-1 and U937 leukemia cells were treated for various lengths of time with 50 μM apigenin or left untreated (NT) and stained with calcein AM and PI as described in Material and Methods to evaluate the percentage of cell survival. (A) THP cells after 12 h cells treated with 50 μM apigenin or with DMSO (NT). (B) The percentage of cell survival represented by means ±SEM (N=3).
FIG. 4. Caspase-3 activation is required for apigenin-induced apoptosis. THP-1 cells were treated for 12 h with 50 μM apigenin alone or pretreated with 20 μM DEVD-FMK for 1 h prior to the addition of apigenin. (A) Cells were then stained with calcein AM and 24 PI and the percentage of apoptotic cells was determined. (B) Lysates from cells treated as described above were used to determined caspase-3 activity by the DEVD-AFC assay. All data represents means ±SEM (N=5).
FIG. 7. Apigenin induced p38 activation is not required for apoptosis. A. Cells were pretreated for 1 h prior to addition of 50 μM apigenin or DMSO (−) with 10 or 25 μM concentrations of SB203580 or DMSO (−) for 12 h. The percentage of apoptotic cells was determined by calcein AM with PI stained cells. Data represents means ±SEM (N=5 p>0.05). B. Lysates from the same treatments were used to determined caspase-3 activity by the DEVD-AFC assay. Data represents means ±SEM (N=5 p>0.05).
(§3) To investigate apoptosis, cells were plated at a density of 1×10^6 cells/well. After treatment, cells were collected and washed in PBS. Cells were then incubated in RPMI (no phenol red) and 1 μg/ml calcein AM for 30 min and 5×10−2 ng/ml propidium iodide (PI) for 5 min. Cells were washed twice and resuspended in PBS. Cells were viewed using a fluorescent microscope (Olympus, Melville, N.Y.). At least 200 cells were counted. Cells calcein AM positive (green) in the absence of PI (red) were considered alive while cells undergoing apoptosis are green with red. Number of green cells or green with red cells was counted over total number of cells (green alone and green with red) to express cell survival or apoptotic cell percentage respectively.

The subject of assay [4] is U937 cells. Described as above. The conditions noted are these: U937, 50 μM. It is filed as cell-based, human. The protocol: as §2, §3
The next assay relates to caspase-9. As to the kind of experiment: Caspase-9 activity, LEHD-AFC assay, U937 lysates. It is filed as cell-based, human. Conditions: U937, 50 μM apigenin; remained high even after 24 h. The protocol:
(§4) FIG. 3. Apigenin induces caspase activation in monocytic leukemia. THP-1 (top) and U937 (bottom) leukemia cells were treated for various lengths of time with 50 μM apigenin or DMSO (NT). (A and C) Caspase-9 activity was determined by the LEHDAFC assay. (B and D) Caspase-3 activity was determined by the DEVD-AFC assay. Data represents means ±SEM (N=3).
(§5) For measurements of caspase activity, cells were plated at a density of 1.5×10^6 cells/well. After treatment, cells extracts were prepared as previously described (Doseff, A. I., Baker J. H., Bourgeois T. A. and Wewers M. D. (2003) Interleukin-4-induced zpoptosis entails caspase activation and suppression of extracellular signal-regulated kinase phosphorylation. Am. J. Resp. Cell Mol. Biol., 29, 367-374). Protein extracts were incubated with 20 μM DEVD-AFC to determine caspase-3 activity or LEHD-AFC to determine caspase-9 activity (Enzyme Systems Products, Livermore, Calif.) in a cytobuffer as previously described (Doseff, A. I., Baker J. H., Bourgeois T. A. and Wewers M. D. (2003) Interleukin-4-induced zpoptosis entails caspase activation and suppression of extracellular signal-regulated kinase phosphorylation. Am. J. Resp. Cell Mol. Biol., 29, 367-374). Levels of released AFC were measured using Cytofluor 400 fluorimeter (Filters: excitation 400 nm, emission 508 nm; Perspective Co., Framingham, Mass.).

Assay [5] relates to caspase-3. As to the kind of experiment: Caspase-3 activity, DEVD-AFC assay, U937 lysates. It is filed as cell-based, human. Conditions: U937, 50 μM apigenin; remained high even after 24 h. The protocol: as §4, §5
Assay [6] concerns caspase-3. As to the kind of experiment: Caspase-3 activity in LPS-stimulated monocytes (DEVD-AFC). The assay is classed as cell-based. The protocol: as §5
Apigenin reactivates caspase-3 on LPS-stimulated monocytes. Caspase-3 activity was determined by the DEVD-AFC assay in monocytes freshly isolated (Fresh) or monocytes cultured for 18 h left untreated, treated with 10 ng/m 1 LPS or (A) with different doses of apigenin alone, (B) with LPS and different doses of apigenin or (C) with LPS 1 h prior to the addition of apigenin. […]

Assay [7] concerns IL-8. As to the kind of experiment: IL-8 release by LPS stimulated monocytes. The assay is classed as cell-based.
A further assay relates to IL-1β. As to the kind of experiment: Cytokine expression in LPS-treated monocytes by quantitative PCR. The assay is classed as cell-based. Conditions: 10 ng/ml LPS and 10 μM apigenin. As to the method: (§6) Expression of IL-1β, IL-8 and TNFα was analyzed by quantitative PCR using lysates from monocytes left untreated, treated with 10 ng/ml of LPS or with LPS and 10 μM of apigenin. Values represent means ±SEM (N=4).

Assay [8] has as its system IL-8. The description is as above. The assay is classed as cell-based. Conditions: 10 ng/ml LPS and 10 μM apigenin. The protocol:
as §6

A further assay concerns TNFα. Described as above. The conditions noted are these: 10 ng/ml LPS and 10 μM apigenin. The assay is classed as cell-based. The protocol:
as §6

Molecules are shown by their SMILES.

The viability is a per cent measure of how many cells are alive, often set against a control.

Take `O=c1cc(-c2ccc(O)cc2)oc2cc(O)cc(O)c12` [apigenin]: the “cell proliferation (ratio of treated to control cells)” value with THP-1 cells [1] is reported as “approximately 20%”; in the assay on U937 cells [2] (U937, 50 μM apigenin), 50%; in the assay with U937 cells [2] (U937, higher concentrations of apigenin (above 50 μM)), 20%; in the assay on A549 cells, 80%; in the assay on MCF-7 cells, 80%. The viability at 50 µM with THP-1 cells [3] (Homo sapiens, THP-1, 12 h, read-out: cell viability (survival)) is 30%. For the same molecule, the apoptotic cells with THP-1 cells [3] (THP-1, 50 μM apigenin alone, 12 h) is 70%. In the assay with THP-1 cells [3] (THP-1, 50 μM, 9 h, reduced to), the cell survival is on record as 80%. The “decrease in cell survival” value is on record as 10% with U937 cells [4] (12 h) and 50% with U937 cells [4] (24 h). Further, the “caspase-9 activity, time course” value in the assay on caspase-9 was “detected at 9 h”. Moreover, the “caspase-3 activity, time course” value in the assay with caspase-3 [5] is on record as “detected at 9 h”. Also, the caspase-3 activation entry with caspase-3 [6] is “significantly increases”. Also, the “release of IL-8” value in the assay on IL-8 [7] is recorded as “inhibits”. Also, the “expression of IL-1β” value with IL-1β is “inhibits the expression”. Also, the “expression of IL-8” value with IL-8 [8] was “inhibits the expression”. For the same molecule, the “expression of TNFα” value in the assay on TNFα was “inhibits the expression”.

Source of the values: US20080200538A1, “Inhibition of Monocyte Survival, Differentiation, or Proliferation” (The Ohio State University Research Foundation, priority 2005, published 2008).
